# Values quoted from earlier work as cited in patent US20040208906A1, “Pharmaceutical composition for topical administration” (Daiichi Suntory Pharma Co., Ltd., priority 1999, published 2004).
# Tests used:
# [1] = tested on: Gram-positive bacteria (MSSA, Streptococcus pyogenes, Streptococcus pneumoniae, PRSP, oral streptococci, enterococci); settings: Gram-positive bacteria incl. MSSA
# [2] = tested on: pathogens of periodontitis, including Porphyromonas gingivalis
structure (smiles),measurement,setting,value
"C[C@@H](O)[C@H]1C(=O)N2C(C(=O)[O-])=C([C@H]3CCCO3)S[C@H]12.[Na+] [Compound 1, sodium (+)-(5R,6S)-6-[(R)-1-hydroxyethyl]-7-oxo-3-[(R)-2-tetrahydrofuryl]-4-thia-1-azabicyclo[3.2.0]hept-2-ene-2-carboxylate]",antibacterial activity,[1],potent antibacterial activity
same,antibacterial activity,[2],potent antibacterial activity
